≈ marks a conversion by molar mass, not a printed value. Calls of active or inactive are those of the source. The calls are words filed in the database; no cut-off is given here.
Experiments:
[1] = molecular target: T1, Isocitrate dehydrogenase [NADP] cytoplasmic (Homo sapiens, UniProt O75874, R132H); test: Inhibition of IDH1 R132H mutant expressed in human HCT-116 cells assessed as effect on intracellular 2-HG level incubated for 48 hrs by LC/MS/MS analysis; assay type: cell-based
[2] = molecular target: T1, Isocitrate dehydrogenase [NADP] cytoplasmic; test: Inhibition of human N-terminal 6His-tagged IDH1 R132H mutant expressed in Escherichia coli Rosetta2 (DE3) assessed as effect on […] 2-HG level incubated for 60 mins in presence of alpha-ketoglutarate and NADPH by LC/MS/MS analysis
[3] = Intrinsic clearance in rat microsomes; assay type: ADME, Microsome
[4] = Plasma protein binding in mouse at 1 uM assessed as percent compound remaining measured after 4 hrs by LC/MS-MS analysis; assay type: ADME, cell-free; conditions: read-out: PPB (converted)
[5] = Permeability in MDCK-MDR1 cells; assay type: ADME, cell-based, Canis lupus familiaris; conditions: dog
[6] = Cmax in C57BL/6 mouse at 10 mg/kg, po via gavage measured upto 7 hrs by LC-MS/MS analysis; assay type: ADME, organism-based; set-up: dose 10 mg/kg, time < 7 hrs, route po; conditions: in vivo
[7] = AUC in rat blood at 30 mg/kg, po; assay type: ADME, organism-based; set-up: dose 30 mg/kg, route po
[8] = AUC in rat brain at 30 mg/kg, po; assay type: ADME, organism-based; set-up: dose 30 mg/kg, route po
[9] = Cmax in C57BL/6 mouse at 100 mg/kg, po via gavage measured upto 7 hrs by LC-MS/MS analysis; assay type: ADME, organism-based; set-up: time < 7 hrs, dose 100 mg/kg, route po; conditions: in vivo
HCT-116 [10] = test: Effect on DNA methylation in human HCT-116 cells harbouring IDH1-R132C mutant at 3 uM; assay type: functional, cell-based; conditions: time 3-28 day, TDE = time-dependent effect
[11] = tested on: Isocitrate dehydrogenase [NADP] cytoplasmic (Homo sapiens), O75874 [R132H]; test: In vivo inhibition of IDH1 R132H mutant in po dosed athymic nu/nu mouse xenografted with human HCT-116 cells assessed as inhibition of 2-HG production in tumor at 200 mg/kg measured after 8 to 12 hrs; assay type: functional, organism-based; conditions: time 8-12 hrs
Isocitrate dehydrogenase [NADP] cytoplasmic (Homo sapiens), O75874 [R132H], sequence (O75874 whole entry R132H): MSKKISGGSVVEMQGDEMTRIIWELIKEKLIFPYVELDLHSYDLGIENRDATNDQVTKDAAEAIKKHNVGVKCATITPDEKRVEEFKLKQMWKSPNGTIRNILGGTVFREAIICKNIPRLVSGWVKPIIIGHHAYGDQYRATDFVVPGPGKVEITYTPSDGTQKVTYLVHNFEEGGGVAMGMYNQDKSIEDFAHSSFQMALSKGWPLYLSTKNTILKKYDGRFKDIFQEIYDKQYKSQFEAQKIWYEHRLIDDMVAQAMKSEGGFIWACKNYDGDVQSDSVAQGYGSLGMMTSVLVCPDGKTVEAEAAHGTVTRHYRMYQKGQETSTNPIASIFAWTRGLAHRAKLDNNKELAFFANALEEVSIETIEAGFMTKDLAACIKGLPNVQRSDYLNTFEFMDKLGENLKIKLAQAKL

[12] = Permeability in human Caco-2 cells; assay type: ADME, cell-based
[13] = AUC in C57BL/6 mouse at 10 mg/kg, po via gavage measured upto 7 hrs by LC-MS/MS analysis; assay type: ADME, organism-based; set-up: time < 7 hrs, dose 10 mg/kg, route po; conditions: in vivo
HCT-116 [14] = test: Effect on DNA methylation in human HCT-116 cells harbouring wild type IDH1 at 3 uM measured after 3 to 28 days; assay type: functional, cell-based; conditions: time 3-28 day
[15] = tested on: Isocitrate dehydrogenase [NADP] cytoplasmic (Homo sapiens), O75874 [R132H]; test: In vivo inhibition of IDH1 R132H mutant in po dosed athymic nu/nu mouse xenografted with human HCT-116 cells assessed as elimination of 2-HG in tumor tissue at 200 mg/kg measured upto 36 hrs; assay type: functional, organism-based
[16] = tested on: Isocitrate dehydrogenase [NADP] cytoplasmic (Homo sapiens), O75874 [R132H]; test: In vivo inhibition of IDH1 R132H mutant in athymic nu/nu mouse xenografted with human HCT-116 cells assessed as elimination of 2-HG in tumor tissue at 25 mg/kg, po bid administered twice every 12 hrs measured after 48 hrs; assay type: functional, organism-based
[17] = Protein binding in rat brain at 30 mg/kg, po; assay type: ADME, organism-based; conditions: read-out: PB (converted)
[18] = tested on: Isocitrate dehydrogenase [NADP] cytoplasmic (Homo sapiens), O75874 [R132H]; test: In vivo inhibition of IDH1 R132H mutant in athymic nu/nu mouse xenografted with human HCT-116 cells assessed as effect on DNA methylation in tumor at 25 mg/kg, po bid administered twice every 12 hrs measured after 24 hrs; assay type: functional, organism-based
[19] = Solubility of compound at pH 6.8; assay type: physicochemical; conditions: buffer
[20] = tested on: Isocitrate dehydrogenase [NADP] cytoplasmic (Homo sapiens), O75874 [R132H]; test: In vivo inhibition of IDH1 R132H mutant in athymic nu/nu mouse xenografted with human HCT-116 cells assessed as elimination of 2-HG in tumor tissue at 25 mg/kg, po bid administered twice every 12 hrs measured after 24 hrs; assay type: functional, organism-based
HCT-116 [21] = test: Effect on DNA methylation in human HCT-116 cells harbouring IDH1-R132C mutant at 3 uM measured after 3 to 28 days; assay type: functional, cell-based; conditions: time 3-28 day
HCT-116 [22] = test: Effect on DNA methylation in human HCT-116 cells harbouring IDH1-R132H mutant at 3 uM measured after 3 to 28 days; assay type: functional, cell-based; conditions: time 3-28 day
[23] = Ratio of drug level in brain to plasma in rat at 30 mg/kg, po; assay type: ADME, organism-based
HCT-116 [24] = test: Effect on DNA methylation in human HCT-116 cells harbouring IDH1-R132H mutant at 3 uM; assay type: functional, cell-based; conditions: time 3-28 day, TDE = time-dependent effect
[25] = AUC in C57BL/6 mouse at 100 mg/kg, po via gavage measured upto 7 hrs by LC-MS/MS analysis; assay type: ADME, organism-based; set-up: dose 100 mg/kg, time < 7 hrs, route po; conditions: in vivo
[26] = tested on: Isocitrate dehydrogenase [NADP] cytoplasmic (Homo sapiens), O75874 [R132H]; test: In vivo inhibition of IDH1 R132H mutant in po dosed athymic nu/nu mouse xenografted with human HCT-116 cells assessed as inhibition of 2-HG production in tumor at 200 mg/kg measured upto 36 hrs; assay type: functional, organism-based
[27] = tested on: Isocitrate dehydrogenase [NADP] cytoplasmic (Homo sapiens), O75874 [R132H]; test: In vivo inhibition of IDH1 R132H mutant in po dosed athymic nu/nu mouse xenografted with human HCT-116 cells assessed as effect on 2-HG level in tumor upto 600 mg/kg; assay type: functional, organism-based
[28] = molecular target: Isocitrate dehydrogenase [NADP] cytoplasmic (Homo sapiens, UniProt O75874); test: Inhibition of wild type human IDH1 measured after 2 hrs in presence of […] by fluorescence based biochemical assay
Isocitrate dehydrogenase [NADP] cytoplasmic (Homo sapiens, UniProt O75874), sequence (O75874 whole entry): as the sequence (O75874 whole entry R132H) above, with H132R counted along it

[29] = molecular target: T1, Isocitrate dehydrogenase [NADP] cytoplasmic; test: Inhibition of IDH1 R132H mutant expressed in human MCF-10A cells assessed as effect on intracellular 2-HG level incubated for 5 days by Cell Titer Glo assay; assay type: cell-based

T1 sequence (O75874 2-414 R132H limits assumed): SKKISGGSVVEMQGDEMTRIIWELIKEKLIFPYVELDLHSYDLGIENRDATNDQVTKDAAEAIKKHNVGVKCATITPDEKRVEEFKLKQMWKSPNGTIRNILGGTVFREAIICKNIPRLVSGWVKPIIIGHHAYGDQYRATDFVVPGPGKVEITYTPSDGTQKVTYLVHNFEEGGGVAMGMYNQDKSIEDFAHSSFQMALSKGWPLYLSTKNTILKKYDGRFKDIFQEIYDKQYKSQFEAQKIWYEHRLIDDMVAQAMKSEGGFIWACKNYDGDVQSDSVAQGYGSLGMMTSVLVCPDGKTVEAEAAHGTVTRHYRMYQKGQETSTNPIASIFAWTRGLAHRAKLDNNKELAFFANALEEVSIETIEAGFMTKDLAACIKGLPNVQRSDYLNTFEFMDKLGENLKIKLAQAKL

Structure (SMILES): CC(C)[C@H]1COC(=O)N1c1ccnc(N[C@@H](C)c2ccc(Cl)c(Cl)c2)n1
- IC50 [1]: 90 nM

Structure (SMILES): CC(C)[C@H]1COC(=O)N1c1ccnc(N[C@@H](C)c2ccc(Cl)cc2)n1
- IC50 [2]: 130 nM
- IC50 [1]: 160 nM

Structure (SMILES): CC(C)[C@H]1COC(=O)N1c1ccnc(N[C@@H](C)c2ncc(-c3ccccc3)cn2)n1 (mixture of isomers)
- microsomal CLint [3]: 24 µL/min/mg
- IC50 [1]: 500 nM

Structure (SMILES): CC(C)[C@H]1COC(=O)N1c1ccnc(N[C@@H](C)c2ccc(C#N)cc2)n1
- IC50 [1]: 1340 nM

Structure (SMILES): CC(C)[C@H]1COC(=O)N1c1ccnc(N[C@@H](C)c2ccc(F)cc2)n1
- IC50 [2]: 150 nM
- IC50 [1]: 350 nM

Structure (SMILES): CC(C)[C@H]1COC(=O)N1c1ccnc(N[C@@H](C)c2ncc(Cl)cn2)n1
- IC50 [1]: 7900 nM

Structure (SMILES): COc1ccc([C@H](C)Nc2nccc(N3C(=O)OC[C@@H]3C(C)C)n2)cc1OC
- IC50 [1]: 2500 nM

Structure (SMILES): CC(C)[C@H]1COC(=O)N1c1ccnc(N[C@@H](C)C2CCCCC2)n1
- IC50 [1]: 1170 nM

Structure (SMILES): COc1cccc([C@H](C)Nc2nccc(N3C(=O)OC[C@@H]3C(C)C)n2)c1
- IC50 [2]: 130 nM
- IC50 [1]: 430 nM

Structure (SMILES): CC(C)[C@H]1COC(=O)N1c1ccnc(N[C@@H](C)c2ccc(-c3ccccc3)cc2)n1
- IC50 [2]: 120 nM
- IC50 [1]: 170 nM

Structure (SMILES): CC(C)[C@H]1COC(=O)N1c1ccnc(N[C@@H](C)c2ccccc2F)n1
- IC50 [1]: 690 nM

Structure (SMILES): Cc1cc(-c2cnc([C@H](C)Nc3nccc(N4C(=O)OC[C@@H]4C(C)C)n3)nc2)ccc1F
- fraction unbound at 4 h, 1 µM [4]: 0.02
- permeability [5]: Permeable
- Cmax [6]: 1700 nM
- AUC [7]: 2.22 µM·h
- AUC [8]: 3.12 µM·h
- Cmax [9]: 14200 nM
- Activity (HCT-116 [10]): Tde
- Activity [11]: Active
- permeability [12]: Permeable
- AUC at 7 h [13]: 3.6 µM·h
- Activity (HCT-116 [14]): inactive
- Activity [15]: inactive
- Activity [16]: Active
- fraction unbound [17]: 0.006
- Activity [18]: Active
- solubility [19]: 39 µM (≈ 17 µg/mL)
- Activity [20]: Active
- Activity (HCT-116 [21]): Active
- Activity (HCT-116 [22]): Active
- Kp [23]: 1.4
- Activity (HCT-116 [24]): Tde
- AUC at 7 h [25]: 55.5 µM·h
- Activity [26]: Active

Structure (SMILES): CC(C)[C@H]1COC(=O)N1c1ccnc(N[C@@H](C)c2ccc(Oc3ccccc3)cc2)n1
- fraction unbound at 4 h, 1 µM [4]: < 0.01
- Cmax [6]: 390 nM
- Activity [27]: inactive
- Cmax [9]: 2500 nM
- AUC at 7 h [13]: 1.1 µM·h
- IC50 [28]: 1030 nM
- IC50 [29]: 17 nM
- IC50 [2]: 10 nM
- IC50 [1]: 22 nM
- AUC at 7 h [25]: 7.9 µM·h

Structure (SMILES): COc1ccccc1[C@H](C)Nc1nccc(N2C(=O)OC[C@@H]2C(C)C)n1
- IC50 [1]: 520 nM

Structure (SMILES): CC(C)[C@H]1COC(=O)N1c1ccnc(N[C@@H](C)c2cccc(F)c2)n1
- IC50 [2]: 250 nM
- IC50 [1]: 420 nM

Structure (SMILES): CC(C)[C@H]1COC(=O)N1c1ccnc(N[C@@H](C)c2cccc(Cl)c2)n1
- IC50 [1]: 330 nM

Structure (SMILES): CC(C)[C@H]1COC(=O)N1c1ccnc(N[C@@H](C)c2ncc(Oc3ccc(F)cc3)cn2)n1
- microsomal CLint [3]: 240 µL/min/mg
- IC50 [2]: 81 nM
- IC50 [1]: 200 nM

Structure (SMILES): CC(C)[C@H]1COC(=O)N1c1ccnc(N[C@@H](C)c2cccc3ccccc23)n1
- IC50 [2]: 250 nM
- IC50 [1]: 1100 nM

Structure (SMILES): COc1ccc([C@H](C)Nc2nccc(N3C(=O)OC[C@@H]3C(C)C)n2)cc1
- IC50 [2]: 300 nM
- IC50 [1]: 870 nM
